# Measured values from patent US6890944B2, “Organic acid salt of amlodipine” (priority 2002, dated 2005).
# Where two headings read alike, the source gives them in different places.
# Tests used:
# Format in all cases: physicochemical
# [1] = Test for hygroscopicity: water content (K.F. water %) at 25° C. at different humidity levels; conditions: for water content (K.F. water %): 25° C.
# [2] = Test for solubility in various solvents; conditions: based on weight of amlodipine, note: dissolved at 37° C.
# [3] = Chemical stability in solid state, accelerated test at 60° C. (HPLC content)
# [4] = Chemical stability in aqueous state, stored at 25° C. for 4 weeks in complete darkness (HPLC); conditions: in distilled water
# Experimental: The resulting aqueous solutions were stored at 25° C. for 4 weeks in complete darkness, after which a measurement was made of the contents of the salts with resort to HPLC under the same conditions as in the solid state.
# [5] = Test for light stability: aqueous solutions stored at 25° C. for 4 weeks exposed to sunlight (HPLC); conditions: 25° C. sunlight; for Content (HPLC): aqueous solution, stored for 4 weeks; for colour change: light stability test, 4 weeks
# Experimental: The resulting aqueous solutions were stored at 25° C. for 4 weeks while being exposed to sunlight. A measurement was made of the contents of the salts with resort to HPLC under the same conditions as in the chemical stability test.
structure (smiles),measurement,setting,value
CCOC(=O)C1=C(COCCN)NC(C)=C(C(=O)OC)C1c1ccccc1Cl.O=C(O)Cc1ccc(O)cc1 (centres unmarked) [amlodipine p-hydroxyphenylacetate],water content (K.F. water %),"[1]; 25% RH, 1 week, listed as p-hydroxyphenylacetate",0.08%
same,water content (K.F. water %),"[1]; 60% RH, 1 week, listed as p-hydroxyphenylacetate",0.1%
same,water content (K.F. water %),"[1]; 75% RH, 1 week, listed as p-hydroxyphenylacetate",0.14%
same,water content (K.F. water %),"[1]; 90% RH, 1 week",0.17%
same,water content (K.F. water %),"[1]; Initial, listed as p-hydroxyphenylacetate",0.15%
same,hygroscopicity,[1]; relative humidity 95%,≤ 0.5%
same,solubility,"[2]; Dist. Water, 25° C. (text), listed as p-Hydroxyphenylacetate",3000 µg/mL
same,solubility,"[2]; buffer pH 6, ionic strength 0.2, 25 °C, pH 6, aqueous buffer, pH 6, ionic strength 0.2 buffer, 25° C., read-out: solubility",2200 µg/mL
same,solubility,"[2]; buffer pH 7, ionic strength 0.2, 25 °C, pH 7, aqueous buffer, pH 7, ionic strength 0.2 buffer, 25° C., read-out: solubility",1100 µg/mL
same,solubility,"[2]; pH 2, ionic strength 0.2 buffer, 25° C. (text), listed as p-Hydroxyphenylacetate",8900 µg/mL
same,solubility,"[2]; pH 4, ionic strength 0.2 buffer, 25° C. (text), listed as p-Hydroxyphenylacetate",8800 µg/mL
same,solubility,"[2]; pH 7.4, ionic strength 0.2 buffer, 25° C. (text), listed as p-Hydroxyphenylacetate",4000 µg/mL
same,solubility,"[2]; pH 8, ionic strength 0.2 buffer, 25° C. (text), listed as p-Hydroxyphenylacetate",3000 µg/mL
same,HPLC content,[3]; 1 week,99.6%
same,HPLC content,[3]; 2 weeks,99.5%
same,HPLC content,[3]; 4 weeks,99.4%
same,HPLC content,[3]; initial,99.7%
same,decomposition products / content change (HPLC),[4],neither decomposition products nor content change is found
same,Content (HPLC),[5],98.9%
same,colour change,[5],kept its original white color
"CCOC(=O)C1=C(COCCN)NC(C)=C(C(=O)OC)C1c1ccccc1Cl.Cc1ccc(S(=O)(=O)O)cc1 (centres unmarked) [Tosylate, Amlodipine Para-toluenesulfonate]",Content (HPLC),[5],72.0%
"CCOC(=O)C1=C(COCCN)NC(C)=C(C(=O)OC)C1c1ccccc1Cl (centres unmarked) [Besylate, amlodipine besylate, reference compound]",water content (K.F. water %),"[1]; 25% RH, 1 week",0.10%
same,water content (K.F. water %),"[1]; 60% RH, 1 week",0.09%
same,water content (K.F. water %),"[1]; 75% RH, 1 week",0.15%
same,water content (K.F. water %),[1]; Initial,0.14%
same,solubility,"[2]; Dist. Water, 25° C. (text)",1290 µg/mL
same,solubility,"[2]; pH 2, ionic strength 0.2 buffer, 25° C. (text)",1290 µg/mL
same,solubility,"[2]; pH 4, ionic strength 0.2 buffer, 25° C. (text)",1320 µg/mL
same,solubility,"[2]; pH 6, ionic strength 0.2 buffer, 25° C.",1280 µg/mL
same,solubility,"[2]; pH 7, ionic strength 0.2 buffer, 25° C.",640 µg/mL
same,solubility,"[2]; pH 7.4, ionic strength 0.2 buffer, 25° C. (text)",1350 µg/mL
same,solubility,"[2]; pH 8, ionic strength 0.2 buffer, 25° C. (text)",1250 µg/mL
same,HPLC content,[3]; 1 week,99.6%
same,HPLC content,[3]; 2 weeks,99.4%
same,HPLC content,[3]; 4 weeks,99.2%
same,HPLC content,[3]; initial,99.6%
same,Content (HPLC),[5],82.5%
same,colour change,[5]; listed as amlodipine besylate,turned yellow from white
